Source: patent US10253039B2, “Inhibitors of bacterial DNA gyrase with efficacy against gram-negative bacteria” (priority 2014, dated 2019)
In brackets after ≈: the same amount, converted by molar mass. Read-outs that look alike come from different tables or passages of the source.

Tests used:
[1] = system: E. coli BW25113 ΔtolC cipR isolate GyrB Ser464Phe; experiment: MIC against ciprofloxacin-resistant mutant
[2] = system: E. coli BW25113 ΔtolC gyrR isolate GyrA Ser97Pro; experiment: MIC against gyramide-resistant mutant; details: Escherichia coli, BW25113
E. coli BW25113 ΔtolC = experiment: MIC, microdilution in 96-well plates
[3] = system: E. coli BW25113 ΔtolC cipR isolate GyrA Ser83Leu; experiment: MIC against ciprofloxacin-resistant mutant
[4] = system: E. coli BW25113 ΔtolC cipR isolate GyrA Asp87Gly; experiment: MIC against ciprofloxacin-resistant mutant
[5] = system: E. coli BW25113 ΔtolC gyrR isolate GyrA His45Tyr; experiment: MIC against gyramide-resistant mutant; details: Escherichia coli, BW25113
[6] = system: E. coli BW25113 ΔtolC gyrR isolate GyrB Thr508Met; experiment: MIC against gyramide-resistant mutant; details: Escherichia coli, BW25113
[7] = system: E. coli BW25113 ΔtolC gyrR isolate GyrA Pro35Thr; experiment: MIC against gyramide-resistant mutant; details: Escherichia coli, BW25113
[8] = system: E. coli BW25113 ΔtolC gyrR isolate GyrA Phe96Leu; experiment: MIC against gyramide-resistant mutant; details: Escherichia coli, BW25113
[9] = system: E. coli BW25113 ΔtolC cipR isolate GyrA Asp87Tyr; experiment: MIC against ciprofloxacin-resistant mutant
Acinetobacter baumannii = experiment: MIC, microdilution in 96-well plates; type: cell-based; details: Table 7, separate set of experiments, read-out: MIC
Procedure, shortened: (§1)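 First, a 1:10000 inoculum of each strain was made in Luria-Bertani medium from a growing subculture. Next, the compound was added and diluted 2-fold down the plate in three replicate columns, with DMSO in a fourth. Finally, plates were shaken at 37° C. for 16-18 hours and scored visually.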

Edwardsiella tarda = experiment: MIC, microdilution in 96-well plates; type: cell-based; details: read-out: MIC
Procedure, shortened: as §1

E. coli BW25113 = experiment: MIC, microdilution in 96-well plates; type: cell-based; details: Escherichia coli, read-out: MIC
Procedure, shortened: as §1

Enterobacter aerogenes = experiment: MIC, microdilution in 96-well plates; type: cell-based; details: Klebsiella aerogenes, Enterobacter aerogenes; Table 7, separate set of experiments; read-out: MIC
Procedure, shortened: as §1

Pseudomonas aeruginosa = experiment: MIC, microdilution in 96-well plates; type: cell-based; details: Table 7, separate set of experiments, read-out: MIC
Procedure, shortened: as §1

[10] = system: Salmonella enterica subsp. enterica typhimurium; experiment: MIC, 20-strain panel; type: cell-based
Procedure, shortened: as §1

Bacillus cereus = experiment: MIC, 20-strain panel; type: cell-based
Procedure, shortened: as §1

Bacillus subtilis 168 = experiment: MIC, 20-strain panel; type: cell-based
Procedure, shortened: as §1

[11] = system: Staphylococcus saprophyticus subsp. saprophyticus; experiment: MIC, 20-strain panel; type: cell-based; details: read-out: MIC
Procedure, shortened: as §1

Streptococcus pyogenes = experiment: MIC, 20-strain panel; type: cell-based; details: read-out: MIC
Procedure, shortened: as §1

[12] = system: Klebsiella pneumoniae subsp. pneumoniae; experiment: MIC, 20-strain panel; type: cell-based; details: read-out: MIC
Procedure, shortened: as §1

[13] = system: Staphylococcus epidermidis; experiment: MIC, 20-strain panel; type: cell-based; details: read-out: MIC
Procedure, shortened: as §1

E. coli JW5503 (deltolC) = experiment: MIC, 20-strain panel; type: cell-based; details: Escherichia coli
Procedure, shortened: as §1

[14] = system: Morganella morganii subsp. morganii; experiment: MIC, 20-strain panel; type: cell-based; details: Morganella morganii subsp. morganii; Table 7, separate set of experiments; read-out: MIC
Procedure, shortened: as §1

Shigella flexneri = experiment: MIC, 20-strain panel; type: cell-based
Procedure, shortened: as §1

Enterococcus faecium = experiment: MIC, 20-strain panel; type: cell-based
Procedure, shortened: as §1

E. coli MG1655 = experiment: MIC, 20-strain panel; type: cell-based; details: Escherichia coli, read-out: MIC
Procedure, shortened: as §1

Enterococcus faecalis = experiment: MIC, 20-strain panel; type: cell-based; details: Table 7, separate set of experiments
Procedure, shortened: as §1

Streptococcus agalactiae = experiment: MIC, 20-strain panel; type: cell-based; details: read-out: MIC
Procedure, shortened: as §1

[15] = system: Staphylococcus aureus subsp. aureus; experiment: MIC, 20-strain panel; type: cell-based; details: read-out: MIC
Procedure, shortened: as §1

[16] = system: ciprofloxacin resistant strains of E. coli; experiment: MIC against ciprofloxacin resistant strains compared to parent strain; details: ratio to MIC of parent strain E. coli BW25113 ΔtolC
[17] = Escherichia coli, BW25113, E. coli BW25113 ΔtolC (parent strain), Table 4
[18] = Table 7, separate set of experiments
[19] = BW25113, E. coli BW25113, Table 7, separate set of experiments
[20] = F: Salmonella enterica subsp. enterica Typhimurium
[21] = Salmonella enterica subsp. enterica typhimurium, Table 7, separate set of experiments
[22] = 20-strain screen of Table 6, read-out: MIC
[23] = I: Staphylococcus saprophyticus subsp. saprophyticus
[24] = Staphylococcus saprophyticus subsp. saprophyticus, Table 7, separate set of experiments
[25] = E: Klebsiella pneumoniae subsp. pneumoniae
[26] = Klebsiella pneumoniae subsp. pneumoniae, Table 7, separate set of experiments
[27] = E. coli JW5503 (deltolC), Table 7, separate set of experiments
[28] = MG1655, E. coli MG1655, Table 7, separate set of experiments
[29] = H: Staphylococcus aureus subsp. aureus
[30] = Staphylococcus aureus subsp. aureus, Table 7, separate set of experiments
[31] = Table 7, separate set of experiments, read-out: MIC

Compound O=C(O)c1cn(C2CC2)c2cc(N3CCNCC3)c(F)cc2c1=O [Ciprofloxacin, ciprofloxacin] has an MIC ([1]; Escherichia coli, BW25113) of 0.05 µM (≈ 0.0166 µg/mL), an MIC [2] of 0.005 µM (≈ 0.00166 µg/mL) and an MIC (E. coli BW25113 ΔtolC; [17]) of 0.005 µM (≈ 0.00166 µg/mL). The MIC (E. coli BW25113 ΔtolC; Escherichia coli, BW25113, E. coli BW25113 ΔtolC (parent strain), Table 5) was 0.00625 µM (≈ 0.00207 µg/mL), the MIC ([3]; Escherichia coli, BW25113) was 0.2 µM (≈ 0.0663 µg/mL) and the MIC ([4]; Escherichia coli, BW25113) was 0.05 µM (≈ 0.0166 µg/mL). It also gave an MIC [5] of 0.01 µM (≈ 0.00331 µg/mL), an MIC [6] of 0.01 µM (≈ 0.00331 µg/mL) and an MIC [7] of 0.005 µM (≈ 0.00166 µg/mL). For the same compound, the MIC [8] was 0.01 µM (≈ 0.00331 µg/mL) and the MIC ([9]; Escherichia coli, BW25113) was 0.1 µM (≈ 0.0331 µg/mL).

Cc1ccc(C(F)(F)F)cc1S(=O)(=O)N[C@@H]1CCN(Cc2ccc(OC3CC3)cc2)C1 [Compound 91] showed an MIC (Acinetobacter baumannii) greater than 16 mg/L, an MIC (Edwardsiella tarda; D: Edwardsiella tarda) of 8 mg/L (≈ 17.6 µM) and an MIC (Edwardsiella tarda; [18]) of 8 mg/L (≈ 17.6 µM). For the same compound, the MIC (E. coli BW25113; BW25113, B: E. coli BW25113) was 8 mg/L (≈ 17.6 µM), the MIC (E. coli BW25113; [19]) was 8 mg/L (≈ 17.6 µM) and the MIC (Enterobacter aerogenes) was greater than 16 mg/L. The MIC (Pseudomonas aeruginosa) was greater than 16 mg/L, the MIC [10, 20] was 4 mg/L (≈ 8.8 µM) and the MIC [10, 21] was 4 mg/L (≈ 8.8 µM). The MIC (Bacillus cereus; [22]) was 8 mg/L (≈ 17.6 µM), the MIC (Bacillus cereus; [18]) was 8 mg/L (≈ 17.6 µM) and the MIC (Bacillus subtilis 168; [22]) was 8 mg/L (≈ 17.6 µM). It also gave an MIC (Bacillus subtilis 168; [18]) of 8 mg/L (≈ 17.6 µM), an MIC [11, 23] of 8 mg/L (≈ 17.6 µM) and an MIC [11, 24] of 8 mg/L (≈ 17.6 µM). The MIC (Streptococcus pyogenes; L: Streptococcus pyogenes) was 4 mg/L (≈ 8.8 µM), the MIC (Streptococcus pyogenes; [18]) was 4 mg/L (≈ 8.8 µM) and the MIC [12, 25] was greater than 8 mg/L. For the same compound, the MIC [12, 26] was greater than 16 mg/L, the MIC ([13]; J: Staphylococcus epidermidis) was 2 mg/L (≈ 4.4 µM) and the MIC [13, 18] was 8 mg/L (≈ 17.6 µM). It also gave an MIC (E. coli JW5503 (deltolC); C: E. coli JW5503 (deltolC)) of less than 0.0625 mg/L, an MIC (E. coli JW5503 (deltolC); [27]) of less than 0.0078 mg/L and an MIC [14] greater than 16 mg/L. The MIC (Shigella flexneri; G: Shigella flexneri) was 8 mg/L (≈ 17.6 µM), the MIC (Shigella flexneri; [18]) was 4 mg/L (≈ 8.8 µM) and the MIC (Enterococcus faecium; [22]) was 8 mg/L (≈ 17.6 µM). For the same compound, the MIC (Enterococcus faecium; [18]) was 8 mg/L (≈ 17.6 µM), the MIC (E. coli MG1655; MG1655, A: E. coli MG1655) was 4 mg/L (≈ 8.8 µM) and the MIC (E. coli MG1655; [28]) was 8 mg/L (≈ 17.6 µM). It also gave an MIC (Enterococcus faecalis) of 16 mg/L (≈ 35.2 µM), an MIC (Streptococcus agalactiae; K: Streptococcus agalactiae) of 8 mg/L (≈ 17.6 µM) and an MIC (Streptococcus agalactiae; [18]) of 8 mg/L (≈ 17.6 µM). For the same compound, the MIC [15, 29] was 4 mg/L (≈ 8.8 µM) and the MIC [15, 30] was 8 mg/L (≈ 17.6 µM).

In the case of Cc1ccc(C#N)cc1S(=O)(=O)N[C@@H]1CCN(Cc2ccc(-c3ccccc3)cc2)C1 [Compound 143], the MIC (Acinetobacter baumannii) is reported as greater than 16 mg/L, the MIC (Edwardsiella tarda; D: Edwardsiella tarda) is reported as roughly 8 mg/L (≈ 18.5 µM) and the MIC (Edwardsiella tarda; [18]) is reported as 8 mg/L (≈ 18.5 µM). The MIC (E. coli BW25113; BW25113, B: E. coli BW25113) was roughly 8 mg/L (≈ 18.5 µM), the MIC (E. coli BW25113; [19]) was 8 mg/L (≈ 18.5 µM) and the MIC (Enterobacter aerogenes) was greater than 16 mg/L. For the same compound, the MIC (Pseudomonas aeruginosa) was greater than 16 mg/L, the MIC [10, 20] was 1 mg/L (≈ 2.32 µM) and the MIC [10, 21] was 2 mg/L (≈ 4.63 µM). For the same compound, the MIC (Bacillus cereus; [31]) was greater than 16 mg/L, the MIC (Bacillus subtilis 168; [31]) was greater than 16 mg/L and the MIC [11, 23] was greater than 8 mg/L. It also gave an MIC [11, 24] greater than 16 mg/L, an MIC (Streptococcus pyogenes; L: Streptococcus pyogenes) greater than 8 mg/L and an MIC (Streptococcus pyogenes; [18]) greater than 16 mg/L. For the same compound, the MIC [12, 25] was greater than 8 mg/L, the MIC [12, 26] was greater than 16 mg/L and the MIC ([13]; J: Staphylococcus epidermidis) was roughly 8 mg/L (≈ 18.5 µM). For the same compound, the MIC [13, 18] was greater than 16 mg/L, the MIC (E. coli JW5503 (deltolC); C: E. coli JW5503 (deltolC)) was less than 0.0625 mg/L and the MIC (E. coli JW5503 (deltolC); [27]) was less than 0.0078 mg/L. For the same compound, the MIC [14] was greater than 16 mg/L, the MIC (Shigella flexneri; G: Shigella flexneri) was 4 mg/L (≈ 9.27 µM) and the MIC (Shigella flexneri; [18]) was 4 mg/L (≈ 9.27 µM). For the same compound, the MIC (Enterococcus faecium; [31]) was greater than 16 mg/L, the MIC (E. coli MG1655; MG1655, A: E. coli MG1655) was 8 mg/L (≈ 18.5 µM) and the MIC (E. coli MG1655; [28]) was 16 mg/L (≈ 37.1 µM). For the same compound, the MIC (Enterococcus faecalis) was greater than 16 mg/L, the MIC (Streptococcus agalactiae; K: Streptococcus agalactiae) was greater than 8 mg/L and the MIC (Streptococcus agalactiae; [18]) was greater than 16 mg/L. The MIC [15, 29] was greater than 8 mg/L and the MIC [15, 30] was greater than 16 mg/L.

Cc1ccc(F)cc1S(=O)(=O)NC1CCN(Cc2ccc(-c3ccccc3)cc2)C1 (stereo not drawn) [Gyramide C] was tested, and the MIC ([1]; cipR isolate GyrB Ser464Phe) was 10 µM (≈ 4.25 µg/mL), the “MIC against ciprofloxacin resistant strains compared to the parent strain” value [16] was 1-4 times and the MIC (E. coli BW25113 ΔtolC; E. coli BW25113 ΔtolC (parent strain), Table 5) was 2.5 µM (≈ 1.06 µg/mL). The MIC ([3]; cipR isolate GyrA Ser83Leu) was 2.5 µM (≈ 1.06 µg/mL), the MIC ([4]; cipR isolate GyrA Asp87Gly) was 5 µM (≈ 2.12 µg/mL) and the MIC ([9]; cipR isolate GyrA Asp87Tyr) was 5 µM (≈ 2.12 µg/mL).

Work on CO[C@@H]1[C@@H](OC(N)=O)[C@@H](O)[C@H](Oc2ccc3c(O)c(NC(=O)c4ccc(O)c(CC=C(C)C)c4)c(=O)oc3c2C)OC1(C)C [Novobiocin, novobiocin] yielded an MIC [2] of 1.25 µM (≈ 0.766 µg/mL), an MIC (E. coli BW25113 ΔtolC; [17]) of 1.25 µM (≈ 0.766 µg/mL) and an MIC [5] of 1.25 µM (≈ 0.766 µg/mL). The MIC [6] was 1.25 µM (≈ 0.766 µg/mL), the MIC [7] was 1.25 µM (≈ 0.766 µg/mL) and the MIC [8] was 1.25 µM (≈ 0.766 µg/mL).
